Values quoted from earlier work, collected in patent US10154980B2, “Anti-inflammatory omega-3 synergistic combinations” (LYCORED LTD., priority 2013, dated 2018).

Test system: NO production
Settings: background, literature references

SMILES	inhibit NO production
CC1=C[C@H](O)CC(C)(C)[C@H]1/C=C/C(C)=C/C=C/C(C)=C/C=C/C=C(C)/C=C/C=C(C)/C=C/C1=C(C)C[C@@H](O)CC1(C)C [lutein, (3R,3′R, 6′R)-beta,epsilon-carotene-3,3′-diol]	shown to inhibit NO production
CC(C)=CCC/C(C)=C/C=C/C(C)=C/C=C/C(C)=C/C=C/C=C(C)/C=C/C=C(C)/C=C/C=C(\C)CCC=C(C)C [lycopene]	shown to inhibit NO production
